From patent US20030109537A1, “Methods and materials for treating bone conditions” (priority 2001, published 2003)

Key:
[1] = test system: genes for cytokines and their receptors; test: cDNA microarray analysis of PTH-regulated genes in proximal tibial metaphysis; assay type: in vivo, rat; details: for genes regulated (of 8500 rat genes, Affymetrix): p<0.05
Method: (§1) Induction of parathyroid bone disease. Three month-old female Sprague-Dawley rats (Harlan Sprague-Dawley, Inc., Indianapolis, Ind.) were randomly divided into 3 groups, with 5 rats per group. In group 1 (pulsatile or intermittent PTH), each rat received 80 μg/kg/day human PTH (1-34) (hPTH) in vehicle (150 mM NaCl, 1 mM HCl and 2% heat-inactivated rat serum) by subcutaneous (s.c.) injection once daily for 7 days. In group 2 (vehicle), an osmotic pump (Alza Corp., Mountainview, Calif.) that delivered vehicle alone at a rate of 1 μl/hr for 7 days was implanted in each rat. In group 3 (continuous PTH), an osmotic pump that delivered 40 μg/kg/day hPTH at a rate of 1 μl/hr for 7 days was implanted in each rat. On day 8, all rats were anesthetized with ketamine (50 mg/kg): xylazine HCl (5 mg/kg) and sacrificed by decapitation. Both tibiae were removed from each rat. Right tibiae were fixed by immersion in 70% ethanol then processed for bone histology to verify the appearance of peritrabecular fibrosis. Left tibiae were frozen in liquid N2 and stored at −80° C. until processed for RNA isolation.
(§2) Isolation of RNA. Frozen proximal tibial metaphyses were individually homogenized in guanidine isothiocyanate using a Spex freezer mill (Industries, Inc., Edison, N.J.). Total RNA was extracted from the homogenate using a modified organic solvent method. See Chomczynski et al., Anal. Biochem., 162:156-159 (1987). Isolated RNA yields were determined spectrophotometrically at 260 nm using standard methods.
cDNA microarray analysis. cDNA probes were generated by reverse transcription (Superscript II, Life Technologies, Rockville, Md.) using 1 μg total RNA isolated from the proximal tibial metaphysis of rats in groups 1, 2, and 3. First-strand cDNA probes were primed by the addition of oligo dT and subsequently labeled with [α-^33P]dCTP (ICN Radiochemicals Costa Mesa, Calif.). The labeled probes then were purified by passage through a Sephadex G-50 DNA Grade Column (Amersham Pharmacia Biotech AB, Uppsala, Sweden). The purified probes were hybridized to a rat genefilter microarray containing 5531 genes (GF 300; Research Genetics, Huntsville, Ala.). according to the manufacturer's recommended protocol. A micro-array system from Affymetrix, which contains 8500 genes, also was used. After hybridization, the array was washed and wrapped with plastic wrap before placing in a phosphor imaging cassette containing a Cyclone Storage Phosphor Screen (Packard, Downers Groves, Ill.). After 24 hours, the screen was imaged and the resulting images analyzed using Pathways 2.01 software to compare the signal intensities of spots.
Candidate genes associated with peritrabecular fibrosis were identified with cDNA microarrays containing 5531 or 8500 genes as described in Example 1. Approximately 14% of the total genes measured were differentially expressed by at least 2.5-fold between pulsatile and continuous PTH-treated groups. […] Of the regulated genes, 158 were unique to intermittent administration of PTH and 759 to continuous administration of PTH. An additional 158 genes were common to both treatments.
The list of candidate genes was examined to determine if any of the genes encoded growth factors. More specifically, it was determined if the differentially expressed genes were growth factors produced on or near bone surfaces, were chemotactic to fibroblasts, were able to stimulate fibroblast proliferation, or could induce bone resorption. One of the candidate genes, PDGF, a known mitogenic and chemotactic factor for fibroblasts, met all these criteria.

[2] = test system: PDGF-A mRNA; test: RNase protection assay of steady state mRNA levels; assay type: in vivo, rat
Method: as §1, §2
RNase protection assay. Steady state mRNA levels for PDGF-A and other growth factors were determined using an RNase protection assay kit according to the manufacturer's protocol (Pharmingen, San Diego, Calif.). Quantitation of protected RNA fragments was performed by PhosphoImager analyses and normalized to glyceraldehyde-3-phosphate dehydrogenase (GAPDH) and the ribosomal structural protein L32.
RNase protection assays were performed as described in Example 1, for PDGF-A, BMP-1, BMP-6, BMP-3, and TGF-β1 to verify the microarray data. […]

[3] = continuous PTH, rat proximal tibial metaphysis, gene microarray
[4] = continuous administration of PTH
[5] = intermittent administration of PTH

Substance: human PTH (1-34)
- total genes differentially expressed by at least […] between pulsatile and continuous PTH-treated groups ([1]; cDNA microarrays): Approximately 14%
- BMP-1 gene expression, Fold Change [1, 3]: 1.3 fold
- BMP-3 gene expression, Fold Change [1, 3]: 19 fold
- BMP-6 gene expression, Fold Change [1, 3]: 1.6 fold
- COX2 gene expression, Fold Change [1, 3]: 1.8 fold
- FGF gene expression, Fold Change [1, 3]: 5.1 fold
- FGF receptor-1 gene expression, Fold Change [1, 3]: 2.7 fold
- IL-6 receptor gene expression, Fold Change [1, 3]: −1.2 fold
- IL-12p40 gene expression, Fold Change [1, 3]: 1.3 fold
- PGE2 receptor EP3 gene expression, Fold Change [1, 3]: 1.7 fold
- PTH receptor gene expression, Fold Change [1, 3]: 3.8 fold
- TGF-β1 gene expression, Fold Change [1, 3]: 1.5 fold
- TGF-β3 gene expression, Fold Change [1, 3]: 1.9 fold
- PDGF-A gene expression, Fold Change ([1]; continuous PTH, rat proximal tibial metaphysis, gene microarray, n = 5): 85 fold
- number of regulated genes unique to the regimen [1, 4]: 759
- genes regulated (of 8500 rat genes, Affymetrix) [1, 4]: 10.4%
- number of regulated genes unique to the regimen [1, 5]: 158
- genes regulated (of 8500 rat genes, Affymetrix) [1, 5]: 3.6%
- number of regulated genes common to both treatments ([1]; intermittent and continuous PTH): 158
- PTH-induced regulation of mRNA levels for BMP-1, -3, and -6, as well as TGF-β ([2]; RNase protection assay verifying microarray data): confirmed
- increase in the mRNA levels for PDGF-A ([2]; continuous PTH, rat tibial metaphysis, RNase protection assay, normalized to L32): 3.3 fold
- effect on steady state mRNA levels for PDGF-A ([2]; pulsatile PTH, rat tibial metaphysis, RNase protection assay): no effect
